Assay results reported in US9656962B2, “Ring-contracted morphinans and the use thereof” (Purdue Pharma L.P., priority 2013, dated 2017).

Key:
μ-opioid receptor [1] = target: T1, μ-opioid receptor (Homo sapiens (Human), UniProt P35372); assay: μ-opioid receptor radioligand binding assay ([3H]-diprenorphine); settings: binding affinity
Method: μ-Opioid Receptor Binding Assay Procedures: Radioligand dose-displacement binding assays for μ-opioid receptors used 0.3 nM [^3H]-diprenorphine (Perkin Elmer, Shelton, Conn.), with […] membrane protein/well in a final volume of 500 μl binding buffer (10 mM MgCl2, 1 mM EDTA, 5% DMSO, 50 mM HEPES, pH 7.4). Reactions were carried out in the absence or presence of increasing concentrations of unlabeled naloxone. All reactions were conducted in 96-deep well polypropylene plates for 2 hours at room temperature. Binding reactions were terminated by rapid filtration onto 96-well Unifilter GF/C filter plates (Perkin Elmer, Shelton, Conn.), presoaked in 0.5% polyethylenimine using a 96-well tissue harvester (Perkin Elmer, Shelton, Conn.) followed by performing three filtration washes with 500 μl of ice-cold binding buffer. Filter plates were subsequently dried at 50° C. for 2-3 hours. BetaScint scintillation cocktail (Perkin Elmer, Shelton, Conn.) was added (50 μl/well), and plates were counted using a Packard Top-Count for 1 min/well. The data were analyzed using the one-site competition curve fitting functions in GraphPad PRISM™ v. 3.0 or higher (San Diego, Calif.), or an in-house function for one-site competition curve-fitting.

[2] = target: recombinant human kappa opioid receptor (κ) (Homo sapiens (Human), UniProt P41145); assay: κ-opioid receptor radioligand binding assay ([3H]-U69,593); settings: binding affinity
δ-opioid receptor = δ-opioid receptor (Homo sapiens (Human), UniProt P41143); assay: δ-opioid receptor [35S]GTPγS functional assay (Table 4); type: biochemical
Chain of δ-opioid receptor (P41143 whole entry, looked up): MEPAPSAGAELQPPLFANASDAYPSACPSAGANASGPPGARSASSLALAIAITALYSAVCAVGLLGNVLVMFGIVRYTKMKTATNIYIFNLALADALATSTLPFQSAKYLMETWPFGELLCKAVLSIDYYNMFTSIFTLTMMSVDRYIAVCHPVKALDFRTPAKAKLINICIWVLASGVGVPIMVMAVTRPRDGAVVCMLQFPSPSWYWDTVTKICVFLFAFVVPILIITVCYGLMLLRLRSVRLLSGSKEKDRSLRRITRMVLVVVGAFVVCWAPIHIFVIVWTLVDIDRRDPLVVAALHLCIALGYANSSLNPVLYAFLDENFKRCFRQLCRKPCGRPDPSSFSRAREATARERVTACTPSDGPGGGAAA
Method: δ-Opioid Receptor Functional Assay Procedures: Functional [^35S]GTPγS binding assays were conducted as follows. δ opioid receptor membrane solution was prepared by sequentially adding final concentrations of 0.026 μg/μl δ membrane protein (Perkin Elmer, Shelton, Conn.), 10 μg/mL saponin, 3 μM GDP and 0.20 nM [^35S]GTPγS to binding buffer (100 mM NaCl, 10 mM MgCl2, 20 mM HEPES, pH 7.4) on ice. The prepared membrane solution (190 μl/well) was transferred to 96-shallow well polypropylene plates containing 10 μl of 20× concentrated stock solutions of agonist prepared in DMSO. Plates were incubated for 30 min at a temperature of about 25° C. with shaking Reactions were terminated by rapid filtration onto 96-well Unifilter GF/B filter plates (Perkin Elmer, Shelton, Conn.) using a 96-well tissue harvester (Packard) and followed by three filtration washes with 200 μl ice-cold binding buffer (10 mM NaH2PO4, 10 mM Na2HPO4, pH 7.4). Filter plates were subsequently dried at 50° C. for 1-2 hours. Fifty μl/well scintillation cocktail (Perkin Elmer, Shelton, Conn.) was added and plates were counted in a Packard Top-count for 1 min/well.
δ GTP Emax (%) is the maximal effect elicited by a compound relative to the effect elicited by met-enkephalin.

μ-opioid receptor [3] = target: T1, μ-opioid receptor; assay: μ-opioid receptor [35S]GTPγS functional assay, U-2 OS cells (Table 5); type: biochemical
Procedure, shortened: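 Membranes (0.026 mg/mL) from cells expressing recombinant human μ-opioid receptor in a U-2 OS background were incubated with 0.20 nM [35S]GTPγS, 3 mM GDP and saponin in 20 mM HEPES pH 7.4, 100 mM NaCl, 10 mM MgCl2 for 30 min at about 25 °C. Filter-bound radioactivity counted; sigmoidal dose-response fits gave values, Emax relative to DAMGO.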

NC(=O)[C@@H]1C[C@]23CCN(CC4CC4)[C@H](Cc4ccc(O)cc42)[C@]3(O)C1 [Compound 31, (2R,3aS,4R,9bS)-12-(cyclopropylmethyl)-3a,8-dihydroxy-1,2,3,3a,4,5-hexahydro-4,9b-(epiminoethano)cyclopenta-[a]naphthalene-2-carboxamide]
Ki (μ-opioid receptor [1]): 10.2 ± 3.58 nM | Ki [2]: 0.84 ± 0.26 nM | Emax (δ-opioid receptor; relative to met-enkephalin): 32 ± 3.49% | EC50 (δ-opioid receptor; δ GTP): 75.5 ± 13.6 nM | Emax (μ-opioid receptor [3]; relative to DAMGO): 49 ± 3.76% | EC50 (μ-opioid receptor [3]; μ GTP): 2.35 ± 0.32 nM
